According to patent US8043623B2, “Immunogenic peptides for the treatment of prostate and breast cancer” (The Government of the United States of America as …, priority 2003, dated 2011):
“Also recorded” adds a separate entry of the source.

How the values were obtained:
[1] = target: T1, HLA-A2.1 molecules (Homo sapiens, UniProt P04439, D140Y/D185E/D98H/E176V/E277Q/G131W/G231S/I119V/I121R/I166T/I218V/L300P/L318F/N151K/N90K/P208A/P217A/Q86G/Q94H/R138H/R169H/T345S); assay: T2-binding assay; conditions: T2 cells; for binding capacity to HLA-A2.1 molecules: overnight with β2-microglobulin, anti-HLA-A2 staining
T1 construct: The T2 cell line is deficient in TAP1 and TAP2 transporter proteins and expresses low levels of HLA-A2.1; endogenous in cells; host or cells: T2 cell line (TAP1/TAP2-deficient)
Description: T2-binding assay. Peptide binding capacity to HLA-A2.1 molecules was measured by using the T2 cell line according to a protocol previously described (Nijman et al., Eu. J. Immunol. 23:1215, 1993). T2 cells (3×10^5/well) were incubated overnight in 96-well plates with culture medium (1:1 mixture of RPMI 1640/EHAA containing 2.5% FBS, 100 U/ml penicillin, 100 μg/ml streptomycin) with 10 μg/ml β2-microglobulin (Sigma) and different concentrations of peptide. Cells were washed twice with cold PBS containing 2% FBS and incubated for 30 minutes at 4° C. with anti-HLA-A2.1 BB7.2 mAb ( 1/80 dilution from hybridoma supernatant). After washing, cells were stained with FITC-labeled goat anti-mouse Ig (PharMingen, San Diego, Calif.) and the level of HLA-A2.1 expression was measured by flow cytometry. HLA-A2.1 expression was quantified as fluorescence index (FI) according to the formula: FI=(mean fluorescence intensity with peptide-mean fluorescence intensity without peptide)/mean fluorescence intensity without peptide.

[2] = system: peptide-pulsed C1R-A2.1 target cells; assay: Human CTL 5-hour ^51Cr release assay on peptide-pulsed targets; assay type: cell-based; conditions: for recognition of TARP-27-35 by human CTL raised with the peptide / cytolytic activity of human CD8^+ CTL raised with the peptide against targets pulsed with the corresponding peptide: C1R-A2.1 targets; for cross-reactivity of human CD8^+ CTL raised with the peptide to other peptides (wild-type TARP-29-37, enhanced epitopes): C1R-A2.1 targets pulsed with 10 μM peptides; for peptide concentration at which CTLs specific for TARP-29-37-9V recognize targets pulsed with the named peptide (avidity): label = peptide pulsed on targets, effector = TARP-29-37-9V-specific human CTL
Description: (§1) In vitro human CD8^+ T cell priming with DC. Elutriated monocytes and lymphocytes were obtained from HLA-A2.1-positive patients or normal donors. To prepare DC, monocytes were cultured at 10^6 cells/ml in complete medium containing human IL-4 (1000 units/ml) and human GM-CSF (1000 units/ml). On day 2 and 4, half of the media was exchanged. To mature the DC, CD40 ligand trimer (Immunex, Seattle, Wash.) was added at 1 μg/ml on day 4 or 5, and then further cultured for 2 or 3 days. Cells were harvested on day 7, and then pulsed with 10 μM of peptides for 2 hours before γ-irradiation. 1×10^5 peptide-pulsed DC and 2×10^6 autologous CD8^+ T cells were mixed and cultured in 24-well plates. 10 units/ml IL-2 was added on day 2 during restimulation. Cells were restimulated every 7-9 days approximately 4-7 cycles.
(§2) CTL assay. For murine CTL, CD8^+ T cells from the immunized mice were restimulated with peptide-loaded splenocytes for one week as previously described (Oh et al., J Immunol 170:2523, 2003), and then applied to 5 hour ^51Cr release assays. Target cells were labeled with ^51Cr first and washed twice. Cells were then pulsed with peptides for 2 hours and used as target cells without further washing. For human CTL, target cells were also labeled with ^51Cr first, and then loaded with peptides. In the CTL assay against human tumor cells, target cells were incubated in the complete medium containing 1000 units/ml IFN-γ for 72 hours. The mean of triplicate samples was calculated, and the percentage of specific lysis was determined using the following formula: Percentage of specific lysis=100×[(experimental ^51Cr release−control ^51Cr release)/(maximum ^51Cr release−control ^51Cr release)]. The maximum release refers to counts from targets in 2.5% Triton X-100.

[3] = system: A2K^b transgenic mice; assay: Immunization of A2K^b transgenic mice; murine CTL assay and intracellular IFN-γ staining; assay type: in vivo; conditions: for number of IFN-γ-producing CD8^+ T cells, of total CD8^+ T cells: mice immunized with peptide-pulsed DC, intracellular staining; for cross-reactivity of murine CD8^+ CTL induced with the peptide: recognition of wild-type TARP-29-37 and other peptides on pulsed targets: Jurkat-HLA-A2 targets pulsed with peptides; for cross-reactivity of murine CD8^+ CTL induced with the peptide: recognition of wild-type TARP-29-37 and other peptides on pulsed targets / killing of target cells pulsed with TARP-27-35 by murine CTL induced with the peptide: ^51Cr release; for frequency of CD8^+ T cells specific for the individual peptide, compared to wild-type TARP-29-37: mice immunized s.c. with peptide and cytokine in adjuvant, IFN-γ staining
Description: Immunizations. A2K^b transgenic mice were immunized with syngeneic peptide-loaded dendritic cells (DC), plasmid DNA expressing TARP, or the mixture of peptide and cytokine in incomplete Freund's adjuvant (IFA). For DC immunization, DC were pulsed with 10 μM peptide in serum-free RPMI for 2 hours at 37° C., and then mice were immunized subcutaneously (s.c.) with 1-3×10^5 DC without washing. DC were prepared from bone marrow as previously described (Celluzzi et al. J. Exp. Med. 183:283, 1996). Alternatively, mice were immunized intramuscularly with 100 μg plasmid DNA, pcDNA5/FRT/TARP, generated by inserting the TARP DNA into the pcDNA5/RFT (Invitrogen, Carlsbad, Calif.) vector. Mice were also immunized subcutaneously (s.c.) in the base of the tail with 100 μl of an emulsion containing 1:1 IFA and PBS with antigens and cytokines (50 nmol CTL epitope, 50 nmol HBV core 128-140 helper epitope, 3 μg of IL-12, and 5 μg of granulocyte macrophage colony stimulating factor (GM-CSF). IFA and cytokines were purchased from Sigma and Peptotech (Rocky Hill, N.J.), respectively.
as §2
Antibody and flow cytometry. FITC-labeled anti-mouse CD8 (53-6.7), CD11c, CD80 (B7-1), CD54 (ICAM-1), anti-human CD8 (RPA-T8), CD14 (M5E2), CD80 (B7-1), and CD86 (B7-2) were used for staining of cell surface molecules. For intracellular IFN-γ staining, cells were stained by following the manufacturer's protocol. All Abs and reagents were purchased from PharMingen. For flow cytometric analysis of cell surface, 5×10^5 cells were washed and resuspended in PBS containing 0.2% BSA and 0.1% sodium azide. Cells were incubated on ice with the appropriate antibody for 30 minutes and then washed. Samples were analyzed on a FACScan (BD Biosciences, Mountain View, Calif.). Background staining was assessed by use of an isotype control antibody. For tetramer staining, cells were incubated with FITC-labeled anti-CD8 for 10 minutes, and then stained with tetramers.

[4] = system: CD8^+ T cells; assay: In vitro human CD8^+ T cell priming with peptide-pulsed DC; assay type: cell-based; conditions: CD8^+ T cells of an HLA-A2.1-positive prostate cancer patient, peptide-pulsed autologous DC
Description: as §1

[5] = system: MCF-7; assay: CTL assay against human tumor cells (MCF-7); assay type: cell-based
Description: as §1, §2

[6] = 50:1 E/T ratio, targets pre-incubated with IFN-γ 72 hours

Substance	binding capacity to HLA-A2.1 molecules [1]	recognition of TARP-27-35 by human CTL raised with the peptide [2]	cross-reactivity of human CD8^+ CTL raised with the peptide to other peptides (wild-type TARP-29-37, enhanced epitopes) [2]	peptide concentration at which CTLs specific for TARP-29-37-9V recognize targets pulsed with the named peptide (avidity) [2]	binding affinity to HLA-A2.1 molecules compared with another peptide [1]	lytic activity against MCF-7 of CD8^+ CTL specific for the peptide [5, 6]	cross-reactivity of murine CD8^+ CTL induced with the peptide: recognition of wild-type TARP-29-37 and other peptides on pulsed targets [3]	frequency of CD8^+ T cells specific for the individual peptide, compared to wild-type TARP-29-37 [3]	also measured
TARP-2-9: amino acids 2-9 of SEQ ID NO: 1 (QMFPPSPL; listed as Homo sapiens)	Neither TARP-2-9 nor TARP-22-30 showed any measurable binding affinity								
FLRNFSLML (listed as Homo sapiens) [TARP-29-37]	showed measurable binding capacity	to some extent	could recognize and lyse target cells pulsed with the wild-type as well as the two enhanced epitopes; also recorded: killed the wild-type peptide (TARP-29-37, SEQ ID NO: 5)-pulsed target cells efficiently; also recorded: could recognize all four peptide/MHC complexes	only slightly lower avidity					peptide-specific CD8^+ T cell responses (CTL) ([3]; mice immunized with peptide-pulsed DC or plasmid DNA expressing TARP): lower peptide-specific CD8^+ T cell responses; number of IFN-γ-producing CD8^+ T cells, of total CD8^+ T cells [3]: significant number of CD8^+ T cells producing IFN-γ
FLRNFSLMV (TARP peptide with a L9V substitution.) [TARP-29-37-9V]		to some extent	could recognize both wild-type and TARP-29-37-3A comparably; also recorded: killed the wild-type peptide (TARP-29-37, SEQ ID NO: 5)-pulsed target cells efficiently; also recorded: to a similar degree to the immunogen	0.001 µM	lower binding affinity to HLA-A2.1 than TARP-29-37-3A; also recorded: did enhance the binding affinity of wild-type peptide	higher lytic activity against MCF-7; also recorded: could kill human tumor cells	slightly more potent in killing targets pulsed with wild-type TARP-29-37; also recorded: most immunogenic of the peptides in inducing CTLs specific for the wild-type sequence	almost two-fold higher frequencies of CD8^+ T cells; also recorded: higher level of CD8^+ T cell responses than TARP-29-37	cycles of in vitro restimulation needed to detect peptide-specific CD8^+ T cells [4]: at least five cycles; killing of target cells pulsed with TARP-27-35 by murine CTL induced with the peptide [3]: could also kill target cells pulsed with TARP-27-35
TARP-27-35-9V: TARP-27-35 substituted at position 9 with Val (FVFLRNFSV; listed as Homo sapiens)					did not alter the binding affinity of the wild-type peptide				
FVFLRNFSL (listed as Homo sapiens) [TARP-27-35]	showed measurable binding capacity		poorly recognized other peptide/MHC complexes tested; also recorded: did not recognize other peptides as much as they did the immunogens		almost a ten-fold higher binding affinity	higher lytic activity against MCF-7; also recorded: could kill human tumor cells as well	did not recognize TARP-29-37	higher frequency of CD8^+ CTL specific for the peptide	cytolytic activity of human CD8^+ CTL raised with the peptide against targets pulsed with the corresponding peptide [2]: higher levels of cytolytic activity against the corresponding peptides; also recorded: lysed TARP-27-35-pulsed target cells; number of IFN-γ-producing CD8^+ T cells, of total CD8^+ T cells [3]: 2.1%
TARP-22-30: amino acids 22-30 of SEQ ID NO: 1 (RLEHTFVFL; listed as Homo sapiens)	Neither TARP-2-9 nor TARP-22-30 showed any measurable binding affinity								
FLANFSLML (TARP peptide with a R3A substitution.) [TARP-29-37-3A]		to some extent	poorly recognized the wild-type and TARP-29-37-9V; also recorded: did not recognize other peptides as much as they did the immunogens; also recorded: did not recognize wild-type peptide very well in the human	only slightly lower avidity	greatest increase in the binding affinity; also recorded: not less than that of the positive control peptide, FMP; also recorded: highest binding affinity	less lytic activity to MCF-7; also recorded: much lower lytic activity against tumor cells than CTLs to TARP-29-37-9V	recognized TARP-29-37-3A/MHC complex better than other peptide/MHC Class I complexes; also recorded: weak cross-reactivity to wild-type peptide in the mice	almost two-fold higher frequencies of CD8^+ T cells; also recorded: high CD8^+ T cell responses in transgenic mice	cycles of in vitro restimulation needed to detect peptide-specific CD8^+ T cells [4]: after only four cycles; cytolytic activity of human CD8^+ CTL raised with the peptide against targets pulsed with the corresponding peptide [2]: higher levels of cytolytic activity against the corresponding peptides; lytic activity against MCF-7 of CD8^+ CTL specific for the peptide ([5]; 100:1 E/T ratio): comparable range of lytic activity against MCF-7 cells; also recorded: significant range of specific lysis only at a 100:1 E:T ratio; killing of target cells pulsed with TARP-27-35 by murine CTL induced with the peptide [3]: did not kill target cells pulsed with TARP-27-35
substitution with Ala at position 3 in TARP-27-35: TARP-27-35 with Phe at position 3 replaced by Ala (FVALRNFSL; listed as Homo sapiens)	no binding of the peptide to HLA-A2.1 molecules								
TARP-27-35-2L: TARP-27-35 substituted at position 2 with Leu (FLFLRNFSL; listed as Homo sapiens)					did not alter the binding affinity of the wild-type peptide				
